In PubChem BioAssay AID1963428 (Molecular Pharmacology Branch, DTP, NCI, 2024):
“And” between values parts separate entries of the source, which are not always exact repeats. Equal values may be shown once.

System: 171881-019-R-J1-PDC complex spheroid growth, % test/control
Assay: Anticancer human tumor 171881-019-R-J1-PDC patient-derived invasive breast carcinoma cell line growth inhibition [Asc]
Conditions: for viability, T/C: stronger effect = lower value
How it was run: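 Tumor cells were grown as multicellular spheroids with stromal HUVEC and mesenchymal stem cells and treated singly or in combination. Concentrations fell in half-log steps from the clinical Cmax, or from 10 microM where none was known.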
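Wherever viability, T/C is given: spheroids exposed to compounds for 7 days.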

SMILES: COc1c(OCCCN2CCOCC2)ccc2c3n(c(=NC(=O)c4cnc(N)nc4)nc12)CCN3 + CNC(C)C(=O)NC1CN(S(=O)(=O)c2cccc(S(=O)(=O)N3CCC4CCC(C(=O)NC(c5ccccc5)c5ccccc5)N4C(=O)C(NC(=O)C(C)NC)C3)c2)CCC2CCC(C(=O)NC(c3ccccc3)c3ccccc3)N2C1=O
- IC50 (curve of first compound, second compound 0.01 µM): 32.4 nM
- IC50 (curve of first compound, second compound 0.0316 µM): 30.8 nM
- IC50 (curve of first compound, second compound 0.1 µM): 29.6 nM
- IC50 (curve of first compound, second compound 0.316 µM): 28.1 nM
- IC50 (curve of first compound, second compound 1 µM): 28.7 nM
- viability, T/C (second compound 0.01 µM, first compound 0.00316 µM): 196%
- viability, T/C (second compound 0.01 µM, first compound 0.01 µM): 133%
- viability, T/C (second compound 0.01 µM, first compound 0.0316 µM): 49.7%
- viability, T/C (second compound 0.01 µM, first compound 0.1 µM): 15.9%
- viability, T/C (second compound 0.01 µM, first compound 0.316 µM): 4.61%
- viability, T/C (second compound 0.01 µM, first compound 1 µM): 2.61%
- viability, T/C (second compound 0.0316 µM, first compound 0.00316 µM): 215%
- viability, T/C (second compound 0.0316 µM, first compound 0.01 µM): 137%
- viability, T/C (second compound 0.0316 µM, first compound 0.0316 µM): 46.5%
- viability, T/C (second compound 0.0316 µM, first compound 0.1 µM): 15.6%
- viability, T/C (second compound 0.0316 µM, first compound 0.316 µM): 4.08%
- viability, T/C (second compound 0.0316 µM, first compound 1 µM): 1.97%
- viability, T/C (second compound 0.1 µM, first compound 0.00316 µM): 203%
- viability, T/C (second compound 0.1 µM, first compound 0.01 µM): 135%
- viability, T/C (second compound 0.1 µM, first compound 0.0316 µM): 43.8%
- viability, T/C (second compound 0.1 µM, first compound 0.1 µM): 13.1%
- viability, T/C (second compound 0.1 µM, first compound 0.316 µM): 3.67%
- viability, T/C (second compound 0.1 µM, first compound 1 µM): 2.63%
- viability, T/C (second compound 0.316 µM, first compound 0.00316 µM): 182%
- viability, T/C (second compound 0.316 µM, first compound 0.01 µM): 122%
- viability, T/C (second compound 0.316 µM, first compound 0.0316 µM): 41%
- viability, T/C (second compound 0.316 µM, first compound 0.1 µM): 11.9%
- viability, T/C (second compound 0.316 µM, first compound 0.316 µM): 3.14%
- viability, T/C (second compound 0.316 µM, first compound 1 µM): 1.94%
- viability, T/C (second compound 1 µM, first compound 0.00316 µM): 210%
- viability, T/C (second compound 1 µM, first compound 0.01 µM): 125%
- viability, T/C (second compound 1 µM, first compound 0.0316 µM): 43.8%
- viability, T/C (second compound 1 µM, first compound 0.1 µM): 10.4%
- viability, T/C (second compound 1 µM, first compound 0.316 µM): 3.22%
- viability, T/C (second compound 1 µM, first compound 1 µM): 2.13%

SMILES: NC(=O)C(=Cn1cnc(-c2cc(C(F)(F)F)cc(C(F)(F)F)c2)n1)c1cncnc1
- viability, T/C (compound 0.000949 µM): 83.2% and 95.6% and 98.7%
- viability, T/C (compound 0.003 µM): 90.3% and 107% and 115%
- viability, T/C (compound 0.00949 µM): 73.5% and 95.6% and 128%
- viability, T/C (compound 0.03 µM): 44.2% and 56.6% and 124%
- viability, T/C (compound 0.0949 µM): 7.59% and 10.6% and 19.6%
- viability, T/C (compound 0.3 µM): 2.48% and 3.46% and 4.69%
- IC50 (curve of compound): 23.4 nM and 35.4 nM and 66.1 nM

SMILES: Cn1ncnc1[C@H]1c2n[nH]c(=O)c3cc(F)cc(c23)N[C@@H]1c1ccc(F)cc1
- viability, T/C (compound 0.000316 µM): 81.3% and 100% and 94.1%
- viability, T/C (compound 0.001 µM): 86.7% and 107% and 93%
- viability, T/C (compound 0.00316 µM): 90% and 88.5% and 79.2%
- viability, T/C (compound 0.01 µM): 92.8% and 101% and 84.1%
- viability, T/C (compound 0.0316 µM): 86.6% and 86.8% and 99.6%
- viability, T/C (compound 0.1 µM): 91.4% and 81% and 106%
- IC50 (curve of compound): > 100 nM

SMILES: NC1CCC(NC2CC2c2ccccc2)CC1 (centres undefined) + CCN1C(C(=O)NC23CCC(C(=O)O)(CC2)CC3)C(c2cccc(Cl)c2F)C2(C(=O)Nc3cc(Cl)ccc32)C12CCCCC2
- IC50 (curve of first compound, second compound 0.03 µM): > 100 nM
- IC50 (curve of first compound, second compound 0.0949 µM): > 100 nM
- IC50 (curve of first compound, second compound 0.3 µM): > 100 nM
- IC50 (curve of first compound, second compound 0.949 µM): > 100 nM
- IC50 (curve of first compound, second compound 3 µM): > 100 nM
- viability, T/C (second compound 0.03 µM, first compound 0.000316 µM): 123%
- viability, T/C (second compound 0.03 µM, first compound 0.001 µM): 120%
- viability, T/C (second compound 0.03 µM, first compound 0.00316 µM): 111%
- viability, T/C (second compound 0.03 µM, first compound 0.01 µM): 106%
- viability, T/C (second compound 0.03 µM, first compound 0.0316 µM): 110%
- viability, T/C (second compound 0.03 µM, first compound 0.1 µM): 106%
- viability, T/C (second compound 0.0949 µM, first compound 0.000316 µM): 112%
- viability, T/C (second compound 0.0949 µM, first compound 0.001 µM): 94.4%
- viability, T/C (second compound 0.0949 µM, first compound 0.00316 µM): 109%
- viability, T/C (second compound 0.0949 µM, first compound 0.01 µM): 118%
- viability, T/C (second compound 0.0949 µM, first compound 0.0316 µM): 113%
- viability, T/C (second compound 0.0949 µM, first compound 0.1 µM): 103%
- viability, T/C (second compound 0.3 µM, first compound 0.000316 µM): 112%
- viability, T/C (second compound 0.3 µM, first compound 0.001 µM): 120%
- viability, T/C (second compound 0.3 µM, first compound 0.00316 µM): 127%
- viability, T/C (second compound 0.3 µM, first compound 0.01 µM): 107%
- viability, T/C (second compound 0.3 µM, first compound 0.0316 µM): 125%
- viability, T/C (second compound 0.3 µM, first compound 0.1 µM): 116%
- viability, T/C (second compound 0.949 µM, first compound 0.000316 µM): 107%
- viability, T/C (second compound 0.949 µM, first compound 0.001 µM): 114%
- viability, T/C (second compound 0.949 µM, first compound 0.00316 µM): 110%
- viability, T/C (second compound 0.949 µM, first compound 0.01 µM): 121%
- viability, T/C (second compound 0.949 µM, first compound 0.0316 µM): 106%
- viability, T/C (second compound 0.949 µM, first compound 0.1 µM): 115%
- viability, T/C (second compound 3 µM, first compound 0.000316 µM): 102%
- viability, T/C (second compound 3 µM, first compound 0.001 µM): 118%
- viability, T/C (second compound 3 µM, first compound 0.00316 µM): 110%
- viability, T/C (second compound 3 µM, first compound 0.01 µM): 109%
- viability, T/C (second compound 3 µM, first compound 0.0316 µM): 110%
- viability, T/C (second compound 3 µM, first compound 0.1 µM): 107%
